What was measured:
Beta-lactamase class C = Beta-lactamase class C (Enterobacter cloacae, UniProt Q59401); assay: Inhibition of Class C beta-lactamase from Enterobacter cloacae strain P99
Beta-lactamase TEM = Beta-lactamase TEM (Escherichia coli, UniProt P62593); assay: The compound was evaluated for inhibition against Beta-lactamase TEM […]
Beta-lactamase = Beta-lactamase (Staphylococcus aureus, UniProt P00807); assay: The compound was evaluated for inhibition against Beta-lactamase derived from Staphylococcus aureus
Chain of Beta-lactamase (P00807 whole entry): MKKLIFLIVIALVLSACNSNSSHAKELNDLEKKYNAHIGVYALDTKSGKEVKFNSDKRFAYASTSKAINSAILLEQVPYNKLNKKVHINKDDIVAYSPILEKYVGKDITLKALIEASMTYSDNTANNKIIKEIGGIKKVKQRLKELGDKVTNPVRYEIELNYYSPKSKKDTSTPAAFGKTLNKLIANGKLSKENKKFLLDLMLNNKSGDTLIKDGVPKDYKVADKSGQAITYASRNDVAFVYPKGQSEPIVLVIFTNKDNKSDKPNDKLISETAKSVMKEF

Chain of Beta-lactamase TEM (P62593 whole entry): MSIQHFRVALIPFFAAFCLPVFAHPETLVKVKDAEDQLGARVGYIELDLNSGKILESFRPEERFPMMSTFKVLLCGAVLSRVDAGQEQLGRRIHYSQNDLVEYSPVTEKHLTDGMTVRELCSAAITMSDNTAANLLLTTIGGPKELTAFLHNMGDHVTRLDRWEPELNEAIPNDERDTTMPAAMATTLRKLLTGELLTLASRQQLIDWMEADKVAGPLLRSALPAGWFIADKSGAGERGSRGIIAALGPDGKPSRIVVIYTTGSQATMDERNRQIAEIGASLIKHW
Chain of Beta-lactamase class C (Q59401 whole entry): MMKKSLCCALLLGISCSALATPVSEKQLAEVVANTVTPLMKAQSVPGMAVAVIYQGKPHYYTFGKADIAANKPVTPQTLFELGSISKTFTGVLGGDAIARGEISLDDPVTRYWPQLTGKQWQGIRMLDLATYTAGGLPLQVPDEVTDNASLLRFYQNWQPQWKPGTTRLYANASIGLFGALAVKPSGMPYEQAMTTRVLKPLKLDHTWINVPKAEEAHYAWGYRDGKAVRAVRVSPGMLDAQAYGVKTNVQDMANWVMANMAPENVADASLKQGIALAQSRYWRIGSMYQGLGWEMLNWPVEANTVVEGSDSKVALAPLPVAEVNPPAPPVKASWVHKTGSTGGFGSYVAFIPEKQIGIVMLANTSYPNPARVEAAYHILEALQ

| SMILES | IC50 (Beta-lactamase class C) [µM] | IC50 (Beta-lactamase TEM) [µM] | IC50 (Beta-lactamase) [µM] |
| --- | --- | --- | --- |
| C=C1C(COC(C)=O)=C(C(=O)O)N2C(=O)/C(=C/C(=O)OC(C)(C)C)[C@H]2S1(=O)=O | 1.55 | – | – |
| CC1=C(C(=O)O)N2C(=O)/C(=C/c3ccccn3)[C@H]2S(=O)(=O)C1C (stereo partly drawn) | 3.9 | 74.1 | 102 |
| C=C1C(COC(C)=O)=C(C(=O)O)N2C(=O)/C(=C/c3ccccn3)[C@H]2S1(=O)=O | 0.165 | – | 733 |
| C=C1C(C)=C(C(=O)O)N2C(=O)/C(=C/C(=O)O)[C@H]2S1(=O)=O | 36.8 | 277 | – |
| C=C1C(C)=C(C(=O)O)N2C(=O)/C(=C/c3ccccn3)[C@H]2S1(=O)=O | 0.039 | 91.1 | 1860 |
| C=C1C(C)=C(C(=O)O)N2C(=O)/C(=C/C(=O)OC(C)(C)C)[C@H]2S1(=O)=O | 48.6 | – | – |
| CC1=C(C(=O)O)N2C(=O)/C(=C/c3ccccn3)[C@H]2S(=O)(=O)[C@@H]1Sc1nnnn1C | 29 | 31.6 | 844 |
| CC(=O)OCC1=C(C(=O)O)N2C(=O)/C(=C/c3ccccn3)[C@H]2S(=O)(=O)C1 | 0.498 | 34.8 | 402 |
| CSC(SC)=C1C(C)=C(C(=O)O)N2C(=O)/C(=C/c3ccccn3)[C@H]2S1(=O)=O | 0.51 | 173 | – |
| C=C1C(COC(C)=O)=C(C(=O)O)N2C(=O)/C(=C/C(=O)O)[C@H]2S1(=O)=O | 2.49 | 498 | 230 |
| CC(=O)OCC1=C(C(=O)O)N2C(=O)/C(=C/C(=O)OC(C)(C)C)[C@H]2S(=O)(=O)C1 | 6.56 | 0.03 | 977 |
| C=C1C(CSc2nnnn2C)=C(C(=O)O)N2C(=O)/C(=C/C(=O)OC(C)(C)C)[C@H]2S1(=O)=O | 2.38 | 1.13 | – |

Reference: ChEMBL document CHEMBL1133345, “The synthesis and evaluation of 2-substituted-7-(alkylidene)cephalosporin sulfones as beta-lactamase inhibitors” (Bioorg Med Chem Lett, 2000)
